{"source": "patent US20250100962A1", "about": "(CITY OF HOPE, priority 2023, published 2025)", "tested_on": "3T3-L1 preadipocytes", "test": "Adipogenic differentiation of 3T3-L1 preadipocytes", "assay_type": "cell-based", "method": "Cell culture and adipogenic differentiation. 3T3-L1 and C3H10T1/2 cell lines were obtained from ATCC, and maintained in DMEM with 10% fetal bovine serum supplemented with 1% Penicillin-Streptomycin-Glutamine, as previously described (Nam, Guo, Chatterjee et al., 2015; Liu, Xiong, Nam et al., 2020). 0.25% Trypsin was used for digestion and passaging of these cell lines. For adipogenic differentiation induction media (1.6 μM insulin, 1 μM dexamethasone, 0.5 mM IBMX, 0.5 uM Rosiglitazone) was used for 3 days followed by maintenance medium with insulin for 3 days for 3T3-L1 and 5 days for C3H10T1/2 cells, as previously described (Liu et al., 2020). Oil-red-O and Bodipy staining. These stainings for neutral lipids during adipogenic differentiation were performed as previously described (Nam et al., 2015). Briefly, for oil-red-O staining, cells were fixed using 10% formalin and incubated using 0.5% oil-red-O solution for 1 hour. Bodipy 493/503 was used at 1 mg/L together with DAPI for 15 minutes, following 4% paraformaldehyde fixation and permeabilization with 0.2% triton-X100. Immunoblot analysis. Total protein was extracted using lysis buffer containing 3% NaCl, 5% Tris-HCl, 10% Glycerol, 0.5% Triton X-10 in MilliQ water with protease inhibitor cocktail. 20-40 μg of total protein was resolved on 10% SDS-PAGE gels followed by immunoblotting on PVDF membranes (Bio-rad). […]", "data": [{"compound": "[H]/N=C(\\N/C(=N/[H])NCCCCCCNC(=N)NC(=N)Nc1ccc(Cl)cc1)Nc1ccc(Cl)cc1", "note": "[CHX, chlorhexidine]", "values": [{"measurement": "formation of lipid-laden mature adipocyte", "setting": "day 6, oil-red-O, Bodipy", "result": "sufficient to inhibit the formation of lipid-laden mature adipocyte in a dose-dependent manner"}, {"measurement": "C/EBPα and PPARγ levels", "setting": "differentiation day 6", "result": "only moderate tendency of lowering of C/EBPα and PPARγ levels"}]}]}
